The compounds below were run against High affinity 3',5'-cyclic-AMP phosphodiesterase 7A (Homo sapiens, UniProt Q13946) (assay: Inhibition Assay: The PDE 7 (phosphodiesterase VII) inhibiting effect of the compounds of the present invention was performed by the following method, which was modified assay method described in Biochemical. Pharmacol. 48(6), 1219-1223 (1994). (1) The active fraction of PDE 7 (phosphodiesterase VII) was obtained. That is, MOLT-4 (obtainable from ATCC as ATCC No. CRL-1582), which was cell line of human acute lymphoblastic […] T cells, was incubated in RPMI1640 culture medium containing 10% fetal bovine serum to obtain 5x10^8 MOLT-4 cells. The cells were collected by centrifugation and suspended with 10 mL of buffer solution A [25 mM of tris-HCl, 5 mM of 2-mercaptoethnol, 2 mM of benzamidine, 2 mM of EDTA, 0.1 mM of 4-(2-aminoethyl)benzensulfonyl hydrochloride; pH 7.5], then homogenized by Polytron homogenizer. The homogenate were centrifuged under 25,000xG for 10 minutes at 4 C. The supernatant was separated and thus obtained supernatant was further centrifuged under 100,000xG for 60 minutes.).
Chain of High affinity 3',5'-cyclic-AMP phosphodiesterase 7A (Q13946 whole entry): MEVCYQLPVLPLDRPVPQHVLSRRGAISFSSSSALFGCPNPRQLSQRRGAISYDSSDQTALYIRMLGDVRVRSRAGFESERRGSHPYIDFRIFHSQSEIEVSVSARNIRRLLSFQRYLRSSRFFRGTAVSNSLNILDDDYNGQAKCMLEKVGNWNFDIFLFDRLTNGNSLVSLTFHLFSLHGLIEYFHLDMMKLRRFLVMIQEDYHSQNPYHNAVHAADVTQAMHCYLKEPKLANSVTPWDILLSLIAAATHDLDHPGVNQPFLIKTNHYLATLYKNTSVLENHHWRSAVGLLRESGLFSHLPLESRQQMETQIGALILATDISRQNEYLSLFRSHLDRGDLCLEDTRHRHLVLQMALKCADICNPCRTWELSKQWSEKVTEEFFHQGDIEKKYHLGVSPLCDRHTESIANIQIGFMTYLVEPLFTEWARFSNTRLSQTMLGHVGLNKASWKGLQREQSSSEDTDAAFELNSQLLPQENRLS

Row | Structure (SMILES) | IC50 [nM]
1 | COc1cc(NC(=O)c2cc3c(C)nn(C4CCCCC4)c3s2)ccc1C(=O)N1CCN(C)CC1 | 85
2 | Cc1nn(C2CCCCC2)c2sc(C(=O)Nc3ccc(N4CCN(C)CC4)c(Cl)c3)cc12 | 55
3 | COc1cc(NC(=O)c2cc3c(C)nn(C4CCCCC4)c3s2)ccc1C(=O)N1CCC(O)CC1 | 65

Other lines, results leading:

Row | IC50 [nM] | Structure (SMILES)
4 | 34 | Cc1nn(C2CCCCC2)c2sc(C(=O)Nc3ccc(N4CCOCC4)cc3)cc12
5 | 13 | Cc1nn(C2CCCCC2)c2sc(C(=O)NC3CC[C@@H](C(=O)N(C)C)C3)cc12 (stereo partly specified)
6 | 24 | Cc1nn(C2CCOCC2)c2sc(C(=O)N[C@H]3CC[C@H](N4CCOCC4)CC3)cc12
